Bounds are passed on as bounds.

One series has as its target hERG (Homo sapiens (Human), UniProt Q12809). Nature of the series: Patch clamp assay (hERG tail currents, whole-cell). It counts as cell-based. The note with it: hERG transfected HEK 293 cells; for hERG % Remaining 30 μM: 30 μM compound; for hERG % Remaining 10 μM: 10 μM compound; for hERG % Remaining 100 μM: 100 μM compound.
The next series concerns the target Menin-MLL (Homo sapiens (Human), UniProt O00255). Nature of the series: Determination of binding constants (Ki) to Menin-MLL (HTRF). The note with it: HTRF, 0.25 nM H-FL-Menin, 3.2 nM FITC-MLL-4-43, 24 hr incubation; for Ki: read-out: Menin-MLL Ki HTRF Assay: Ki.

Chain of hERG (Q12809 whole entry): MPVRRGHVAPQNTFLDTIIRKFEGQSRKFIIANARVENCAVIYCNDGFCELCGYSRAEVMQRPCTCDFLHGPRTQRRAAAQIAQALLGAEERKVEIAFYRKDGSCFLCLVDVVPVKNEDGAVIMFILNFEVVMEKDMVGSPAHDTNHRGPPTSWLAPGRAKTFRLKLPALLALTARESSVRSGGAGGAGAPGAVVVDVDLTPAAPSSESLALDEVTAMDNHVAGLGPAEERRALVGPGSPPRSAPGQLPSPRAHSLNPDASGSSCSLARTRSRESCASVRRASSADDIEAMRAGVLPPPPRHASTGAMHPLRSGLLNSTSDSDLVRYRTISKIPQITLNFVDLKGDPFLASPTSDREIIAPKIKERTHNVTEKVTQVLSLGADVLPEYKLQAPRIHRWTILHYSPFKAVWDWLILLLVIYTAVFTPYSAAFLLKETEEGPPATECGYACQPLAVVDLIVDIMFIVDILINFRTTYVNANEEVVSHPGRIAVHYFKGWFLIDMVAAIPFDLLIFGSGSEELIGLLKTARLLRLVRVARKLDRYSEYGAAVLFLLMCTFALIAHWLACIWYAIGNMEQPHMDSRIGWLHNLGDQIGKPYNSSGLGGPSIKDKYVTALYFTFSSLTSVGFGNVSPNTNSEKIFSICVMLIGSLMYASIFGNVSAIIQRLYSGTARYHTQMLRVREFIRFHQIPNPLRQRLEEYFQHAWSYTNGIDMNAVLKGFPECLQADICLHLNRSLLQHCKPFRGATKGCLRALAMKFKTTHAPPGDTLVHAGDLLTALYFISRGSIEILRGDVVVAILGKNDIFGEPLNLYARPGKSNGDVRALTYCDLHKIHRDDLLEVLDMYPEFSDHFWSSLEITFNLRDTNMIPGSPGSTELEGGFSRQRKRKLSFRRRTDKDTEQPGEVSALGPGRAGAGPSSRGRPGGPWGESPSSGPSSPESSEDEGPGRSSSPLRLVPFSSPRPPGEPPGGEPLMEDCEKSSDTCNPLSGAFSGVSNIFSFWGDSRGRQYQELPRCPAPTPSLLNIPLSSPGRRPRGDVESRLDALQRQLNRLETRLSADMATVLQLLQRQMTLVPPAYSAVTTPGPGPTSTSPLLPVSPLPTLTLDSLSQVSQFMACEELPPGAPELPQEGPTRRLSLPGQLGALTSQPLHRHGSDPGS
Chain of Menin-MLL (O00255 whole entry): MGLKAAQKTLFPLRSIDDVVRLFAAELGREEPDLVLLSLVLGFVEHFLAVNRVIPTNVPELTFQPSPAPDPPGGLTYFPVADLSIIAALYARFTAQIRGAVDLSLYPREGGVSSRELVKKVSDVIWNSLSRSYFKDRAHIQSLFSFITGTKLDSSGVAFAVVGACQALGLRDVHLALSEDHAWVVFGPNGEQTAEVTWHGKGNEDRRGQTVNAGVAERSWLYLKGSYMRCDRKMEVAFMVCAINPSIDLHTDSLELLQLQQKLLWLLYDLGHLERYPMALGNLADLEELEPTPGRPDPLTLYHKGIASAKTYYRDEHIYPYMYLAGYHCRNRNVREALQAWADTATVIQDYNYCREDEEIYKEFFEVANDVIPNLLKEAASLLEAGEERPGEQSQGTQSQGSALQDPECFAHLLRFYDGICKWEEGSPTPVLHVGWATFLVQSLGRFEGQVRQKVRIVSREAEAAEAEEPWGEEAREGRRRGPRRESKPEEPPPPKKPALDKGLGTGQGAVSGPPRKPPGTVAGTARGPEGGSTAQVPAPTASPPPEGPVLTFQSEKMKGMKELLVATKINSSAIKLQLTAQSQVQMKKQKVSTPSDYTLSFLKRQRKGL

Take `CCNS(=O)(=O)N[C@@H]1CC[C@@H](CN2CCC3(CC2)CN(c2ncncc2Oc2ccc(F)cc2C(=O)N(CC(F)(F)F)C(C)C)C3)OC1` [Compound 153, 2-((4-(7-(((2S,5R)-5-((N-Ethylsulfamoyl)amino)tetrahydro-2H-pyran-2-yl)methyl)-2,7-diazaspiro[3.5]nonan-2-yl)pyrimidin-5-yl)oxy)-5-fluoro-N-isopropyl-N-(2,2,2-trifluoroethyl)benzamide]: on hERG, the “hERG % Remaining 30 μM” value is listed as “+++ (“+++” means ≥66%)” and the IC50 was not below 50000 nM. The Ki on Menin-MLL was less than 1 nM.

On to `CNS(=O)(=O)N[C@@H]1CC[C@@H](CN2CCC3(CC2)CN(c2ncncc2Oc2ccc(F)cc2C(=O)N(C(C)C)C2CC(F)(F)C2)C3)OC1` [Compound 154], for which, at hERG, the “hERG % Remaining 10 μM” value is listed as “+++ (“+++” means ≥66%)”; the “hERG % Remaining 30 μM” value is “++ (“++” means ≥33% and <66%)”. At Menin-MLL, the Ki was less than 1 nM.

For the molecule `CCNS(=O)(=O)N[C@@H]1CC[C@@H](CN2CCC3(CC2)CN(c2ncncc2Oc2ccc(F)cc2C(=O)N(C(C)C)C2CC(F)(F)C2)C3)OC1` [Compound 155, N-(3,3-Difluorocyclobutyl)-2-((4-(7-(((2S,5R)-5-((N-ethylsulfamoyl)amino)tetrahydro-2H-pyran-2-yl)methyl)-2,7-diazaspiro[3.5]nonan-2-yl)pyrimidin-5-yl)oxy)-5-fluoro-N-isopropylbenzamide], on hERG, the “hERG % Remaining 10 μM” value was “+++ (“+++” means ≥66%)”; the “hERG % Remaining 30 μM” value is “++ (“++” means ≥33% and <66%)”. Further, the Ki on Menin-MLL was less than 1 nM.

Take `CC(C)N(C(=O)c1cc(F)ccc1Oc1cncnc1N1CC2(CCN(C[C@@H]3CC[C@@H](NS(=O)(=O)c4cnn(C)c4)CO3)CC2)C1)C1CC(F)(F)C1` [Compound 156, N-(3,3-Difluorocyclobutyl)-5-fluoro-N-isopropyl-2-((4-(7-(((2S,5R)-5-((1-methyl-1H-pyrazole)-4-sulfonamido)tetrahydro-2H-pyran-2-yl)methyl)-2,7-diazaspiro[3.5]nonan-2-yl)pyrimidin-5-yl)oxy)benzamide]: on hERG, the “hERG % Remaining 30 μM” value is “+++ (“+++” means ≥66%)”. Also, the Ki on Menin-MLL was less than 1 nM.

`C[C@@H]1COC[C@@H](C)N1C(=O)c1cc(F)ccc1Oc1cncnc1N1CC2(CCN(C[C@@H]3CC[C@@H](NS(=O)(=O)NCC4CC4)CO3)CC2)C1` [Compound 158, (Cyclopropylmethyl)({[(3R,6S)-6-{[2-(5-{2-[(3R,5R)-3,5-dimethylmorpholine-4-carbonyl]-4-fluorophenoxy}pyrimidin-4-yl)-2,7-diazaspiro[3.5]nonan-7-yl]methyl}oxan-3-yl]sulfamoyl})amine]: the “hERG % Remaining 30 μM” value on hERG is listed as “+++ (“+++” means ≥66%)”. For the same molecule, the Ki at Menin-MLL is less than 1 nM.

In the case of `C[C@@H]1COC[C@H](C)N1C(=O)c1cc(F)ccc1Oc1cncnc1N1CC2(CCN(C[C@@H]3CC[C@@H](NS(=O)(=O)N4CCC4)CO3)CC2)C1` [Compound 161, N-((3R,6S)-6-((2-(5-(2-((3R,5S)-3,5-Dimethylmorpholine-4-carbonyl)-4-fluorophenoxy)pyrimidin-4-yl)-2,7-diazaspiro[3.5]nonan-7-yl)methyl)tetrahydro-2H-pyran-3-yl)azetidine-1-sulfonamide], the “hERG % Remaining 30 μM” value at hERG is given as “+++ (“+++” means ≥66%)”. For the same molecule, the Ki on Menin-MLL was less than 1 nM.

With `CC(C)N(C(=O)c1cc(F)ccc1Oc1cncnc1N1CC2(CCN(C[C@@H]3CC[C@@H](NS(=O)(=O)C4CC4)CO3)CC2)C1)[C@@H]1CCOC1` [Compound 164, 2-((4-(7-(((2S,5R)-5-(Cyclopropanesulfonamido)tetrahydro-2H-pyran-2-yl)methyl)-2,7-diazaspiro[3.5]nonan-2-yl)pyrimidin-5-yl)oxy)-5-fluoro-N-isopropyl-N-((R)-tetrahydrofuran-3-yl)benzamide], on hERG, the “hERG % Remaining 10 μM” value is “+++ (“+++” means ≥66%)” and the “hERG % Remaining 30 μM” value was “+++ (“+++” means ≥66%)”. In addition, on Menin-MLL, the EC50 was less than 50 nM and the Ki was less than 1 nM.

For `CCN(CC)S(=O)(=O)N[C@@H]1CC[C@@H](CN2CCC3(CC2)CN(c2ncncc2Oc2ccc(F)cc2C(=O)N(C(C)C)[C@@H]2CCOC2)C3)OC1` [Compound 165, 2-((4-(7-(((2S,5R)-5-((N,N-Diethylsulfamoyl)amino)tetrahydro-2H-pyran-2-yl)methyl)-2,7-diazaspiro[3.5]nonan-2-yl)pyrimidin-5-yl)oxy)-5-fluoro-N-isopropyl-N-((R)-tetrahydrofuran-3-yl)benzamide], at hERG, the “hERG % Remaining 10 μM” value is given as “+++ (“+++” means ≥66%)”; the “hERG % Remaining 30 μM” value was “++ (“++” means ≥33% and <66%)”. Also, the Ki on Menin-MLL was less than 1 nM.

In the case of `CC(C)N(C(=O)c1cc(F)ccc1Oc1cncnc1N1CC2(CCN(C[C@@H]3CC[C@@H](NS(=O)(=O)N(C)C)CO3)CC2)C1)[C@@H]1CCOC1` [Compound 167, 2-((4-(7-(((2S,5R)-5-((N,N-Dimethylsulfamoyl)amino)tetrahydro-2H-pyran-2-yl)methyl)-2,7-diazaspiro[3.5]nonan-2-yl)pyrimidin-5-yl)oxy)-5-fluoro-N-isopropyl-N-((R)-tetrahydrofuran-3-yl)benzamide], at hERG, the “hERG % Remaining 30 μM” value is on record as “+++ (“+++” means ≥66%)”, the “hERG % Remaining 100 μM” value is “+++ (“+++” means ≥66%)” and the IC50 is not below 50000 nM. At Menin-MLL, the Ki was less than 1 nM.

Consider `CCN(CC)S(=O)(=O)N[C@@H]1CC[C@@H](CN2CCC3(CC2)CN(c2ncncc2Oc2ccc(F)cc2C(=O)N(C(C)C)[C@H]2CCOC2)C3)OC1` [Compound 175, 2-((4-(7-(((2S,5R)-5-((N,N-Diethylsulfamoyl)amino)tetrahydro-2H-pyran-2-yl)methyl)-2,7-diazaspiro[3.5]nonan-2-yl)pyrimidin-5-yl)oxy)-5-fluoro-N-isopropyl-N-((S)-tetrahydrofuran-3-yl)benzamide], for which, at hERG, the “hERG % Remaining 10 μM” value was “++ (“++” means ≥33% and <66%)”; the “hERG % Remaining 30 μM” value is “+ (“+” means <33%)”. In addition, the Ki at Menin-MLL is less than 1 nM.

In the case of `CC(C)N(C(=O)c1cc(F)ccc1Oc1cncnc1N1CC2(CCN(C[C@@H]3CC[C@@H](NS(=O)(=O)C4CC4)CO3)CC2)C1)[C@H]1CCOC1` [Compound 176, 2-((4-(7-(((2S,5R)-5-(Cyclopropanesulfonamido)tetrahydro-2H-pyran-2-yl)methyl)-2,7-diazaspiro[3.5]nonan-2-yl)pyrimidin-5-yl)oxy)-5-fluoro-N-isopropyl-N-((S)-tetrahydrofuran-3-yl)benzamide], on hERG, the “hERG % Remaining 10 μM” value is “+++ (“+++” means ≥66%)”, the “hERG % Remaining 30 μM” value is given as “+++ (“+++” means ≥66%)” and the “hERG % Remaining 100 μM” value was “+++ (“+++” means ≥66%)”. The IC50 on hERG (human, HEK 293 cells stably transfected with hERG) is not below 50000 nM. Besides, at Menin-MLL, the Ki is less than 1 nM.

In the case of `CC(C)N(C(=O)c1cc(F)ccc1Oc1cncnc1N1CC2(CCN(C[C@@H]3CC[C@@H](NS(=O)(=O)N(C)C)CO3)CC2)C1)[C@H]1CCOC1` [Compound 177, 2-((4-(7-(((2S,5R)-5-((N,N-Dimethylsulfamoyl)amino)tetrahydro-2H-pyran-2-yl)methyl)-2,7-diazaspiro[3.5]nonan-2-yl)pyrimidin-5-yl)oxy)-5-fluoro-N-isopropyl-N-((S)-tetrahydrofuran-3-yl)benzamide], on hERG, the “hERG % Remaining 10 μM” value is on record as “+++ (“+++” means ≥66%)” and the “hERG % Remaining 30 μM” value is reported as “+++ (“+++” means ≥66%)”. Besides, at Menin-MLL, the Ki is less than 1 nM.

Values taken from patent US11919901B2 (Syndax Pharmaceuticals, Inc., priority 2021, dated 2024).
